Source: patent publication US20100029612A1, “2-Aminoethyl Substituted Pyrimidin-2-Ones Cyclopropanes, Pyrazolines, Pyrimidines and Benzothiazepines and Their Uses as Urotensin II and Somatostatin 5 Receptor Ligands” (priority 2003, published 2010)

Tests used:
UII receptor = biological target: T1, UII receptor (Homo sapiens, UniProt Q9UKP6); experiment: R-SAT functional mammalian cell-based agonist assay, UII receptor; conditions: for selectivity UII versus SST5 receptor (in words): UII and SST5 receptors; for UII Eff.: agonist efficacy; for UII Eff. / EC50 / UII pEC50: transfected NIH3T3 cells; for EC50 / UII pEC50: agonist; for EC50: read-out: UII pEC50 (converted); for agonist activity at the UII receptor (in words): potency similar to AC-7954
T1 construct: expressed in transfected cells; host or cells: NIH3T3 cells, receptor plasmid in PSI Mammalian Expression Vector (PROMEGA)
T1 sequence (Q9UKP6 1-389): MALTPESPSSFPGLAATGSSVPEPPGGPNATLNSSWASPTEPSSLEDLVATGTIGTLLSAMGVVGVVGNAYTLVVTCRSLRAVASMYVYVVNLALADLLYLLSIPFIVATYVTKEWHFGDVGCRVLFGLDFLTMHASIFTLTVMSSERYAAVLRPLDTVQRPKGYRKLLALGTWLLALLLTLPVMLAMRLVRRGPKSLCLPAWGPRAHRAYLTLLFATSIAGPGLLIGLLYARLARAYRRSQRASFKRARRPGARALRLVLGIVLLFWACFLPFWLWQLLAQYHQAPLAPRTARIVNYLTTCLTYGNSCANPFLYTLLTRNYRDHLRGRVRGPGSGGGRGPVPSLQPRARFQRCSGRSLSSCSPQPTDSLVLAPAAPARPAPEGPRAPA
Protocol: (§1) The compounds I to VI were tested as agonist at the UII and SST5 receptors in the functional mammalian cell-based assay R-SAT, described in U.S. Pat. Nos. 5,707,798, 5,912,132, and 5,955,281.
(§2) R-SAT assays were performed using NIH3T3 cells grown in tissue culture treated rollerbottles to 40-50% confluence. Cells were transfected for 12-16 hours with plasmid DNAs using SUPERFECT (QIAGEN) as per manufacture's protocols. R-SAT's were generally performed with 10 μg/rollerbottle of receptor and 50 μg/rollerbottle of beta-galactosidase plasmid DNA. All receptor and G-protein constructs used were in the PSI Mammalian Expression Vector (PROMEGA). The transfected cells were then trypsinized and frozen in DMEM containing 10% DMSO. Frozen cells were later thawed, plated at 10,000-40,000 cells per well of a 96½ area plate that contained drug. Cells were then grown in a humidified atmosphere with 5% ambient CO2 for five days. Media was then removed from the plates and marker gene activity was measured by the addition of the beta-galactosidase substrate ONPG (in PBS with 5% NP-40). The resulting colorimetric reaction was measured in a spectrophotometric plate reader (Titertek Inc.) at […].

SST5 receptor = biological target: T2, SST5 receptor (Homo sapiens, UniProt P35346); experiment: R-SAT functional mammalian cell-based agonist assay, SST5 receptor; conditions: transfected NIH3T3 cells; for SST5 Eff.: agonist efficacy; for EC50: agonist, read-out: SST5 pEC50 (converted)
T2 construct: expressed in transfected cells; host or cells: NIH3T3 cells, receptor plasmid in PSI Mammalian Expression Vector (PROMEGA)
T2 sequence (P35346 whole entry): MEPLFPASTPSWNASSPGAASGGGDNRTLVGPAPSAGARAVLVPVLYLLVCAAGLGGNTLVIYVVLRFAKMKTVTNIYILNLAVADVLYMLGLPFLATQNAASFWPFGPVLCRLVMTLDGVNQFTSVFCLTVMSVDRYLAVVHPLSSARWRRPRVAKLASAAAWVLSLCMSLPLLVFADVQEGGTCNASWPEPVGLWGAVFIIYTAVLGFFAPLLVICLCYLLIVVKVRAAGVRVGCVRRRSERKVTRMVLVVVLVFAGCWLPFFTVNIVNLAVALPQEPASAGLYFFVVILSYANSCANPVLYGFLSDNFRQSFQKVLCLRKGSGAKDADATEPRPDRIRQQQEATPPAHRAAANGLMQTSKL
Protocol: as §1, §2

[1] = Stability to oxidation by air during storage; assay type: physicochemical
Protocol: A pyrazoline scaffold was prepared by the condensation of compound of formula VI of Example 1 with methylhydrazine in the presence of L-InCl3. […] The stereochemistry of the major isomer was confirmed as having an anti-configuration by the strong interaction between […] in the diethylamino chain and by the absence of any NOESY correlation between H4 (3.56 ppm) and H5 (3.98 ppm). […]

Compound | UII Eff. (UII receptor) | EC50 (UII receptor) [µM] | agonist activity at the UII receptor (in words) (UII receptor) | SST5 Eff. (SST5 receptor) | EC50 (SST5 receptor) [µM] | UII pEC50 (UII receptor) | melting point [°C] | selectivity UII versus SST5 receptor (in words) (UII receptor) | stability of the pyrazoline core to oxidation by air [1]
CCN(CC)CCC1C(c2ccccc2)=NN(C)C1c1ccc(Cl)cc1 (mixture of isomers) [III, anti/syn-5-(4-Chloro-phenyl)-4-(2-diethylamino-ethyl)-1-methyl-3-phenyl-4,5-dihydro-1H-pyrazole] | 31 |  | partial to full agonists |  |  | 5.4 |  | selective UII agonists | stable to oxidation by air during storage
CN(C)CCC1(c2ccc(Cl)cc2)Cc2ccccc2C(=O)O1 (stereo not drawn) [AC-7954, reference compound] | 120 |  |  |  |  | 5.7 |  |  | 
CCN(CC)CCc1c(-c2ccccc2)nc(-c2ccccc2)nc1-c1ccc(Cl)cc1 [IV, 4-(4-Chloro-phenyl)-5-(2-diethylamino-ethyl)-2,6-diphenyl-pyrimidine] |  |  |  |  |  |  | 90.5 to 92.3 |  | 

More lines, main results first:

UII Eff. (UII receptor) | EC50 (UII receptor) [µM] | agonist activity at the UII receptor (in words) (UII receptor) | SST5 Eff. (SST5 receptor) | EC50 (SST5 receptor) [µM] | UII pEC50 (UII receptor) | melting point [°C] | Compound | selectivity UII versus SST5 receptor (in words) (UII receptor) | stability of the pyrazoline core to oxidation by air [1]
35 | 1.58 | partial to full agonists | 41 | 6.31 |  |  | CCN(CC)CCC(=Cc1ccc(Cl)cc1)C(=O)c1ccccc1 (mixture of isomers) [Starting material] | activity at both the UII and SST5 receptors | 
92 | 5.01 | partial to full agonists | 60 | 10 |  |  | CCN(CC)CC[C@@H]1C(c2ccccc2)=Nc2ccccc2S[C@H]1c1ccc(Cl)cc1 (relative stereo) [V, anti-2-(4-Chloro-phenyl)-3-(2-diethylamino-ethyl)-4-phenyl-2,3-dihydro-benzo-[b]-[1,4]-thiazepine] | activity at both the UII and SST5 receptors | 
68 | 6.31 | partial to full agonists |  |  |  |  | CCN(CC)CCC1=C(c2ccccc2)NC(=O)N(C)C1c1ccc(Cl)cc1 (stereo not drawn) [I] | selective UII agonists | 
